Assay results as given in ChEMBL document CHEMBL1201862, “PubChem BioAssay data set” (2004).
The source made the active and inactive calls.

Key:
[1] = target: T1, Estrogen receptor (Homo sapiens, UniProt P03372); assay: ERα coactivator recruitment enhancers – biochemical, TR-FRET, ERα LBD, dose response (AID 737)
T1 sequence (P03372 whole entry): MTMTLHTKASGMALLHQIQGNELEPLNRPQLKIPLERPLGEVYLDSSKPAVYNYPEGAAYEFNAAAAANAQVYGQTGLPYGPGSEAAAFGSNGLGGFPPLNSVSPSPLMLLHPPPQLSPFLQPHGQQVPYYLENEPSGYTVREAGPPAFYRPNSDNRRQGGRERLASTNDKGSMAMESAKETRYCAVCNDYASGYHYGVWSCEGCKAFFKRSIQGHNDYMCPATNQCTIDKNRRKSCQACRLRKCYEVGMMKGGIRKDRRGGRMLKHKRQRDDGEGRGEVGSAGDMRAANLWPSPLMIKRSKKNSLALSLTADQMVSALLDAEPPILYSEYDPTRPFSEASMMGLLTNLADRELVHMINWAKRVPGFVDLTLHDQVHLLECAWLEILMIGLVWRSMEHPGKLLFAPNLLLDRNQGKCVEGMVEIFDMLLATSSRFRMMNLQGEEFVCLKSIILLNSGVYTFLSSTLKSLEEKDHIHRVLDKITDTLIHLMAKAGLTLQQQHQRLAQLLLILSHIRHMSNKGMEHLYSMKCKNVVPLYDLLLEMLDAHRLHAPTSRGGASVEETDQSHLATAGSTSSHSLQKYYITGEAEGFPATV

[2] = target: Eukaryotic translation initiation factor 4H (Homo sapiens, UniProt Q15056); assay: eIF4H binding inhibition – biochemical, uHTS, fluorescence polarization, translation initiation inhibitor project, primary screen (AID 2012)
[3] = target: Polyadenylate-binding protein 1 (Homo sapiens, UniProt P11940); assay: blockers of PABP interaction with poly(A) – biochemical, fluorescence polarization, […] (AID 2014)
[4] = test system: HEK293; assay: inhibition of NOD1-driven NF-kB reporter – cell-based, luminescence, uHTS, primary screen (AID 1578); assay type: functional; conditions: Homo sapiens
[5] = test system: HEK293; assay: cells; assay type: functional, cell-based; conditions: Homo sapiens
[6] = test system: HEK293; assay: cells; assay type: functional, cell-based; conditions: Homo sapiens; remark: listed apart in the source
[7] = test system: HEK293; assay: NOD2 signaling inhibitors in MDP-stimulated cells, cell-based, uHTS, luminescence (AID 2001); assay type: functional; conditions: Homo sapiens
[8] = target: Tumor necrosis factor (Homo sapiens, UniProt P01375); assay: analog potency on TNFa NF-kB signaling – cell-based, revised, SAR follow-up (AID 2337); assay type: functional
[9] = target: T2, Nucleotide-binding oligomerization domain-containing protein 1 (Homo sapiens, UniProt Q9Y239); assay: blockers of NOD1 pathway activity – revised, SAR follow-up (AID 2333); assay type: functional
T2 sequence (Q9Y239 whole entry): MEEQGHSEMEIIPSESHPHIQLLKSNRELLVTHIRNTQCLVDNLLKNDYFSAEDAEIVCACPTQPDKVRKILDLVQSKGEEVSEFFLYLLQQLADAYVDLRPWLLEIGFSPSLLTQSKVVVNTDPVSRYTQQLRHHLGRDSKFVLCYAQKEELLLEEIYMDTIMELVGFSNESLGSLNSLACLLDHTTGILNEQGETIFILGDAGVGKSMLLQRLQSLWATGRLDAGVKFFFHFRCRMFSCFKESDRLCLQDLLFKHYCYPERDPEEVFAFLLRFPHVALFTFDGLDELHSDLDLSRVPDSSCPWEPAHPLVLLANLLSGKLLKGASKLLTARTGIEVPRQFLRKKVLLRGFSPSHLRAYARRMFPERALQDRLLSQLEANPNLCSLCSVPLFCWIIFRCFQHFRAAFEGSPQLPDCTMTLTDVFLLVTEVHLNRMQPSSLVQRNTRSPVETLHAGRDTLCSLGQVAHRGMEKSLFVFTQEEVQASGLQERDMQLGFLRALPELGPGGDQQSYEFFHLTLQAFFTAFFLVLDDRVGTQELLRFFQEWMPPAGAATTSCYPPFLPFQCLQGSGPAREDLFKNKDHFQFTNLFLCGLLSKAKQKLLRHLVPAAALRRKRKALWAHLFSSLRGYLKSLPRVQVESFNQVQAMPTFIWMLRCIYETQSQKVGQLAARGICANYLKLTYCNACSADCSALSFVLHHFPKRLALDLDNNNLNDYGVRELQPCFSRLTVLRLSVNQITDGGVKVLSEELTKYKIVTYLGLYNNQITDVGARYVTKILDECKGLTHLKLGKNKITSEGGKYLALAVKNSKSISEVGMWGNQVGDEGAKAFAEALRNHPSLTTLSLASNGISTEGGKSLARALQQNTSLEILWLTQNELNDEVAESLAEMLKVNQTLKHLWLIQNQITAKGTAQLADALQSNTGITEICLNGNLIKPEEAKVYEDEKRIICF

[10] = target: Nucleotide-binding oligomerization domain-containing protein 2 (Homo sapiens, UniProt Q9HC29); assay: PubChem AID 2334; assay type: functional
[11] = test system: HEK293; assay: cells; conditions: Homo sapiens
[12] = target: T3, Alkaline phosphatase, tissue-nonspecific isozyme (Homo sapiens, UniProt P05186)
T3 sequence (P05186 whole entry): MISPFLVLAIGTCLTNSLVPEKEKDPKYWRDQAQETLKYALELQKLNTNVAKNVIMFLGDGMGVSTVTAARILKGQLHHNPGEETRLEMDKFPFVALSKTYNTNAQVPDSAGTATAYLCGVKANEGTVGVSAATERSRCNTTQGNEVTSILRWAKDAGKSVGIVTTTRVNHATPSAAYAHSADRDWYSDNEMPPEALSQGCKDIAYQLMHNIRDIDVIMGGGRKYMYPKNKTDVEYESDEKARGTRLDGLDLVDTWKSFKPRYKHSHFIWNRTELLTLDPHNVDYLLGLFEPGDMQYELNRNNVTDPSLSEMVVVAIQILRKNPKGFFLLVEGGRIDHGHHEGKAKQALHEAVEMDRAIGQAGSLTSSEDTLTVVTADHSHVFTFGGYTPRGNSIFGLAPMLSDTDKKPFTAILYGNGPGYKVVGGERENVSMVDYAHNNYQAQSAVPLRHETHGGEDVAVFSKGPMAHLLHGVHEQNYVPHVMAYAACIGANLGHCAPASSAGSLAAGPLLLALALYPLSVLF

[13] = test system: Streptococcus sp. 'group A'; assay: Streptococcus pyogenes SK(-)GAS viability under kanamycin – luminescence, BacTiterGlo, confirmation, counter-screen for streptokinase expression inhibitor project, dose response (AID 1900); assay type: functional, organism-based
[14] = test system: Streptococcus; assay: GAS UMAA2166 growth inhibition – luminescence, BacTiterGlo, counter-screen for streptokinase expression inhibitor project, dose response (AID 1915); assay type: functional, organism-based;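 further: potency for reduction of bacterial viability or growth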
[15] = target: T4, Heat shock factor protein 1 (Mus musculus, UniProt P38532); assay: decrease of HSF1-responsive luciferase luminescence – cell-based, NIH3T3, dose retest, confirmation (AID 2382); assay type: functional;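 further: NIH3T3 fibroblasts with HSF1-driven luciferase reporter stressed by proteasome inhibitor MG132; luminescence from HSF1-driven luciferase expression after 8 hours of MG132 stress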
T4 sequence (P38532 whole entry): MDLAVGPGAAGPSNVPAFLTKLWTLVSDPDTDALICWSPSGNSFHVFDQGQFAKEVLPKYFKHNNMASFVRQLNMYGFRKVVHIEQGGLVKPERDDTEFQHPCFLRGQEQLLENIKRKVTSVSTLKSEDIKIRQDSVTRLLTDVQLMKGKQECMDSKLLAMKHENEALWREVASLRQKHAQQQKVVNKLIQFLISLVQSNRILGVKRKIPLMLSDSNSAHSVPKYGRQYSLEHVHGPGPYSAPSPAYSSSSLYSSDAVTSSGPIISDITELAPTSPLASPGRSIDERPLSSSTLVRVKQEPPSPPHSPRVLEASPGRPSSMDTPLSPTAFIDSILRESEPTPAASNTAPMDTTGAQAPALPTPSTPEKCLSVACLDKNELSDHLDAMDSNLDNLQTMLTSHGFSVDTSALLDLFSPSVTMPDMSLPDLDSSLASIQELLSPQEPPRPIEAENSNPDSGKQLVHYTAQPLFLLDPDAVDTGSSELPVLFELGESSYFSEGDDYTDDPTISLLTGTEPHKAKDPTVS

[16] = A High Throughput Confirmatory Assay used to Identify Novel Compounds that Inhibit Mycobacterium Tuberculosis in the absence of Glycerol.; assay type: functional
[17] = microbe, parasite or virus in culture; assay type: functional; conditions: Mycobacterium tuberculosis
[18] = target: T5, Protein Tat (Human immunodeficiency virus type 1 group M subtype B (isolate HXB2)(HIV-1), UniProt P04608); assay type: functional;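 further: tat binding to TAR RNA read out by fluorescence polarization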
T5 sequence (P04608 whole entry): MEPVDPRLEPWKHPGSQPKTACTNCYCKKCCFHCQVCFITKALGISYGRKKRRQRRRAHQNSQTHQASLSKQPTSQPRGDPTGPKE

[19] = viability loss in THP-1 monocytes – THP-1 cells, cytotoxicity control for Vif-APOBEC3G degradation inhibitor project, dose response (AID 1117359); assay type: functional; conditions: THP-1
[20] = target: Hexokinase HKDC1 (Homo sapiens, UniProt Q2TB90); assay: inhibition of HKDC1 glucose phosphorylation – biochemical, W721R variant, dose response (AID 504729); assay type: functional
[21] = test system: Vero; assay: viability of Vero cells under compound – cytotoxicity control for flavivirus capping enzyme inhibitors (AID 588742); assay type: functional; conditions: Chlorocebus sabaeus
[22] = target: Genome polyprotein (dengue virus type 2, UniProt P29990); assay: flavivirus cap methylation enzyme inhibition – biochemical, confirmation dose response, primary screen (AID 588689); assay type: functional
[23] = target: T6, Corticotropin-releasing factor receptor 2/Corticotropin-releasing factor-binding protein (Homo sapiens, UniProt P24387+Q13324); assay: activators of CRF receptor 2 with binding protein – uHTS hits, confirmation (AID 602473); assay type: functional; conditions: read-out: EC50_Mean
T6 sequence (Q13324 whole entry): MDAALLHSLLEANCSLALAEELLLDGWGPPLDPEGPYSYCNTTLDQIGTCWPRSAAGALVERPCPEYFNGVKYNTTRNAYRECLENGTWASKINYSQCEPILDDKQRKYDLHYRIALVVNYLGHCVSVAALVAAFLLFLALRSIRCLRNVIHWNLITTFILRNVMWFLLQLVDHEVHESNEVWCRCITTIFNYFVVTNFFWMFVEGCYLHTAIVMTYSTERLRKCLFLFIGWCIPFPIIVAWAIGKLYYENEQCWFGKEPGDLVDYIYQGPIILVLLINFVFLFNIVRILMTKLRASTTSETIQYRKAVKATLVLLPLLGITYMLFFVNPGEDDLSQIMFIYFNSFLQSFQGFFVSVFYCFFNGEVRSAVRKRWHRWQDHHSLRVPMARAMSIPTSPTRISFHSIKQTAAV
T6 sequence (P24387 whole entry): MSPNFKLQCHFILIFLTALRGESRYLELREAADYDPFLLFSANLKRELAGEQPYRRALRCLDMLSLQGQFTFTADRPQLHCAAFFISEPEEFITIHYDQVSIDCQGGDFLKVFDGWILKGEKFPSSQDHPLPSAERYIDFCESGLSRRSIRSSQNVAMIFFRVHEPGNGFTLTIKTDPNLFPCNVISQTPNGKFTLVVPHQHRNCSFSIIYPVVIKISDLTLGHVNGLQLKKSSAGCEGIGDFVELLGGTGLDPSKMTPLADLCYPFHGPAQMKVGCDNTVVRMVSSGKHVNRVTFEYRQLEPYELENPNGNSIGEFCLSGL

[24] = target: Aminopeptidase N (Plasmodium falciparum FcB1/Columbia, UniProt O96935); assay: malaria alanyl aminopeptidase activity blockers – biochemical, fluorogenic H-Leu-NHMec substrate, 1536-well (AID 1445); parameters: species or system Plasmodium falciparum 3D7, 3D7
Chain of Aminopeptidase N (O96935 whole entry): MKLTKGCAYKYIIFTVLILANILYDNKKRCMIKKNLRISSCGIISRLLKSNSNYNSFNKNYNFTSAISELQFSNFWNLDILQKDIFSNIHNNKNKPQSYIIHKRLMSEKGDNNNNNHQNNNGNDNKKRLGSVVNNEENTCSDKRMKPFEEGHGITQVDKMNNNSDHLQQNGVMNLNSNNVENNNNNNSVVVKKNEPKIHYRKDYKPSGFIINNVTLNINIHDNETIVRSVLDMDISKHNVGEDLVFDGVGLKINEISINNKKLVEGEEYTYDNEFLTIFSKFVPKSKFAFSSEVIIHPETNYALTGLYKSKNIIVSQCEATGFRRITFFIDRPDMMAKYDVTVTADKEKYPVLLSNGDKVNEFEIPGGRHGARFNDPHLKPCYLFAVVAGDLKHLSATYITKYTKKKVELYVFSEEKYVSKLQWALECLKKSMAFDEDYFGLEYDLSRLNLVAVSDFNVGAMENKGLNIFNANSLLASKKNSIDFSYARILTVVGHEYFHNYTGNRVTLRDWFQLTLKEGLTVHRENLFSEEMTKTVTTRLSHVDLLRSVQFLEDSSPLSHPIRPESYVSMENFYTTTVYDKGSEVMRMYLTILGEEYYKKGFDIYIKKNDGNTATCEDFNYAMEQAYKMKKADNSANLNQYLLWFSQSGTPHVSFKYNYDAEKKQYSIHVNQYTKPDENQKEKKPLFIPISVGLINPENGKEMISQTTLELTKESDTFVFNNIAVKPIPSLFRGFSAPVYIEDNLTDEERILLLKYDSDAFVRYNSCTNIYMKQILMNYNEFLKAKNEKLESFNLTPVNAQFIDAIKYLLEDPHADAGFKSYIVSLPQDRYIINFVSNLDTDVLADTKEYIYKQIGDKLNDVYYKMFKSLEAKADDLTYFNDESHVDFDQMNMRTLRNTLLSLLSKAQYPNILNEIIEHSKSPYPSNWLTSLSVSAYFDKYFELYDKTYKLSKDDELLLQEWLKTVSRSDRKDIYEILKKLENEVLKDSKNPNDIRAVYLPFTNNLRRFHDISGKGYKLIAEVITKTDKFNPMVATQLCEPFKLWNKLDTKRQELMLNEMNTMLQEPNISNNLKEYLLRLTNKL

Chain of Tumor necrosis factor (P01375 whole entry, the tested form may be a part): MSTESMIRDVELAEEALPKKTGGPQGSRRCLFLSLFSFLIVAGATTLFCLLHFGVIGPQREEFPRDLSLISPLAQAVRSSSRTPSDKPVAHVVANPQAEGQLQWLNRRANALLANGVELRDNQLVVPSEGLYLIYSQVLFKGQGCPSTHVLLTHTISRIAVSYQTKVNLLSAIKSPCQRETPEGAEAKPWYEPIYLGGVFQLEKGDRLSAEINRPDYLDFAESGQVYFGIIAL
Chain of Polyadenylate-binding protein 1 (P11940 whole entry): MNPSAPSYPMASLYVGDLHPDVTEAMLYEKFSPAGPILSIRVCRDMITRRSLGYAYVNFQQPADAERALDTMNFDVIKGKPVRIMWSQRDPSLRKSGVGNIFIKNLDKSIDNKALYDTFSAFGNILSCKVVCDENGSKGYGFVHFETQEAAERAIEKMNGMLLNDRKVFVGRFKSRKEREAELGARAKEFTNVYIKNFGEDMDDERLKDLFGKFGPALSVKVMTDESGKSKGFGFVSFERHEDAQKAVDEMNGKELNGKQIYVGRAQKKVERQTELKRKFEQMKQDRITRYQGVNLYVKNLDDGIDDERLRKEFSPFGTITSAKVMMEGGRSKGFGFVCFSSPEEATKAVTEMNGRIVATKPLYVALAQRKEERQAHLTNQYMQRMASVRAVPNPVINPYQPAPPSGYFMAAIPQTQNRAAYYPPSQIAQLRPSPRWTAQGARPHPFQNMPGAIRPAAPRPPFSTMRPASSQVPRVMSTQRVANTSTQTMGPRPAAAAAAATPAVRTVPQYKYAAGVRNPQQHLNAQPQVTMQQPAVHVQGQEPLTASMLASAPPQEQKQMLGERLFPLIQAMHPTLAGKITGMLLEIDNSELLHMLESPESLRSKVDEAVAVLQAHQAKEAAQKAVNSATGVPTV
Chain of Nucleotide-binding oligomerization domain-containing protein 2 (Q9HC29 whole entry, the tested form may be a part): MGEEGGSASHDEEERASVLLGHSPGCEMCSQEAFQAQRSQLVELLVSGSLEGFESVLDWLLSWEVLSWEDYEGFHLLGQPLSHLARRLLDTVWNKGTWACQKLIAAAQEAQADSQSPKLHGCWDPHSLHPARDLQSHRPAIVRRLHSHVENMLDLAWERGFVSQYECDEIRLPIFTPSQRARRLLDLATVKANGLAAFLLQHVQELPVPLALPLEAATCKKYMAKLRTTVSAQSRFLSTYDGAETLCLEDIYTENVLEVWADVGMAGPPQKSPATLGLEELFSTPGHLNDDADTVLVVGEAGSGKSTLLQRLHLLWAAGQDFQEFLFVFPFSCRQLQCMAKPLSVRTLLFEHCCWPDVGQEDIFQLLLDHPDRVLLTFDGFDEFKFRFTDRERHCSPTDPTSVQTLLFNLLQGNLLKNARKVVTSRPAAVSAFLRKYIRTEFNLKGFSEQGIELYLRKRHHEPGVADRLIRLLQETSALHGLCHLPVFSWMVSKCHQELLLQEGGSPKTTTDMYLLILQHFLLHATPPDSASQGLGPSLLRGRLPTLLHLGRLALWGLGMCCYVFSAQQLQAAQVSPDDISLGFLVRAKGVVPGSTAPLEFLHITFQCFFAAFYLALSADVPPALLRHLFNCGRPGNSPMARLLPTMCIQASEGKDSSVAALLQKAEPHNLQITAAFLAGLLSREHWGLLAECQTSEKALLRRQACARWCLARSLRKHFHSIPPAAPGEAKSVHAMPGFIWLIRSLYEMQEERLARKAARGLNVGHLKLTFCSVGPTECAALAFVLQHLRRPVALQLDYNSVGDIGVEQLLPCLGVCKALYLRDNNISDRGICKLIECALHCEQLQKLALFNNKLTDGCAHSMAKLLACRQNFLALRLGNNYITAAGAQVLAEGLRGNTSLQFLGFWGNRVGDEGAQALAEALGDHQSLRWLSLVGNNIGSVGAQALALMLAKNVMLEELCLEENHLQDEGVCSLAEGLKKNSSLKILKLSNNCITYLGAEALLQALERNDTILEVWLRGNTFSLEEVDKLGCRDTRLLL
Chain of Genome polyprotein (P29990 2492-3391 limits assumed): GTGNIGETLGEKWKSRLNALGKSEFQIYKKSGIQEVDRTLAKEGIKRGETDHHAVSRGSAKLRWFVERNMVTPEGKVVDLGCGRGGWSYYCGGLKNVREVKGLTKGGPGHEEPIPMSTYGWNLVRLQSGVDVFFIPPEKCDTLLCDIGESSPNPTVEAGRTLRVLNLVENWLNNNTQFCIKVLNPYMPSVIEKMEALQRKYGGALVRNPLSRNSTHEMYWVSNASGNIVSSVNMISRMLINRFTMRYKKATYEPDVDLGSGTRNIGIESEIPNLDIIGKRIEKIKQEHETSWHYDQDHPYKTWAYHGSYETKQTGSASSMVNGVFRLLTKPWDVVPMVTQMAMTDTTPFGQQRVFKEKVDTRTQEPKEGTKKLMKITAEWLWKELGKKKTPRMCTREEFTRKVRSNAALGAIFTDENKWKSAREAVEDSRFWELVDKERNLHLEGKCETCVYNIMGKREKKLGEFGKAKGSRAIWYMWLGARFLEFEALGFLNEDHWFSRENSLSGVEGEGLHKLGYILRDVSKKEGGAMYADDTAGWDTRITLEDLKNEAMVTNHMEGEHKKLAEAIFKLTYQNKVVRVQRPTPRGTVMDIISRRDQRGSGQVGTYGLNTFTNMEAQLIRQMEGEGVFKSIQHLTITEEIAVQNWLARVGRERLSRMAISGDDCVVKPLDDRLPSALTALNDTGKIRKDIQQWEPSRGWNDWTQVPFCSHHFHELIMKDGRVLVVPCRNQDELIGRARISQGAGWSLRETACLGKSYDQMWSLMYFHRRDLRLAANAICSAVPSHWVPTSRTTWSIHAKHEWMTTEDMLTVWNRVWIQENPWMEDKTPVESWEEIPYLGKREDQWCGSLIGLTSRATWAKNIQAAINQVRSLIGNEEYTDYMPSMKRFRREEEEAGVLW
Chain of Hexokinase HKDC1 (Q2TB90 whole entry): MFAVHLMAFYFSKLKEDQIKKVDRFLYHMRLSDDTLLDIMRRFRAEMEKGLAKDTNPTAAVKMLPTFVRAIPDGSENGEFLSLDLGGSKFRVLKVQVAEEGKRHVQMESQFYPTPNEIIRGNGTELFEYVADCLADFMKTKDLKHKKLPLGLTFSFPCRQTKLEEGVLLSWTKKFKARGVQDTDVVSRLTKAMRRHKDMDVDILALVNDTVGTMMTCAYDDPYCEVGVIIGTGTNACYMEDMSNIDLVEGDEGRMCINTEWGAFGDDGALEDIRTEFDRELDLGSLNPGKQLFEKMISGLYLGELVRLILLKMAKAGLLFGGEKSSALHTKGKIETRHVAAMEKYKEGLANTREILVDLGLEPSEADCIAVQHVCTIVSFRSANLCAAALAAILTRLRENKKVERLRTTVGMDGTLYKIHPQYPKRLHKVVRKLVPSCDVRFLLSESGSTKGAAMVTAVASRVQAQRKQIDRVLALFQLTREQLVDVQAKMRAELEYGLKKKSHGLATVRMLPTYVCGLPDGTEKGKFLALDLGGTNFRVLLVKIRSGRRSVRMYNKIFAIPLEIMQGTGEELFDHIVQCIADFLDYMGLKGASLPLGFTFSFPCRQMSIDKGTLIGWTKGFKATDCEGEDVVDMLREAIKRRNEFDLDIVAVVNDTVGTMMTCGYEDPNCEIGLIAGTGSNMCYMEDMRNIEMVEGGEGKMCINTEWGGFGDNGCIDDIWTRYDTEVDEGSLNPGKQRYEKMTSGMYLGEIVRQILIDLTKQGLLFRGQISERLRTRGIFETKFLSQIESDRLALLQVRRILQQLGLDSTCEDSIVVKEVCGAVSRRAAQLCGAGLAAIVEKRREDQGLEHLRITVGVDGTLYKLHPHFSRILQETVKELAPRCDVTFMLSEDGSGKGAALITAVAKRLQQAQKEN

In the case of O=C(Cn1c(=O)oc2cc(S(=O)(=O)N3CCCCCC3)ccc21)NC1CCCCC1, the EC50 [1] is reported as 12.9 µM (not active).

With Cc1ccccc1N(C)S(=O)(=O)c1nnc(NC(=O)c2ccco2)s1 the IC50 [2] was 25.9 µM (active) and the IC50 [3] was 67.8 µM (active).

For C=CCN(c1ccccc1OC)S(=O)(=O)c1ccc(Cl)c(C(=O)Nc2ccc(N3CCOCC3)cc2)c1, the EC50 [4] was 12 µM (active), the IC50 [5] was > 20 µM (inactive) and the IC50 [6] was > 20 µM (inactive). The IC50 [7] was 14.4 µM (inactive), the IC50 [8] was 13.2 µM (active) and the IC50 [9] was 14 µM (active). The IC50 [10] was 10.4 µM (active) and the IC50 [11] was > 20 µM (inactive).

With O=C(Nc1ccccc1-c1ccccc1)NC1CC2CCCC(C1)N2CCc1ccccc1 (configuration not stated) the EC50 [12] was 51.2 µM (not active).

With CC(=O)NC(=S)Nc1ccc(NC(=S)NC(=O)/C=C/c2ccco2)cc1 the IC50 [2] was 36.7 µM (active), the EC50 [13] was 2.69 µM (active) and the EC50 [14] was 5.33 µM (active). For the same compound, the IC50 [3] was > 100 µM (inactive).

With C=CCSC1=Nc2sccc2C2=NC(=O)CN12 the EC50 [15] was 18.5 µM (active) and the EC50 [12] was > 100 µM (not active).

In the case of Oc1ccc2ccccc2c1C1Nc2cccc3cccc(c23)N1, the IC50 [16] is reported as > 100 µM (active), the CC50 [17] is reported as > 40 µM (active) and the IC50 [18] is reported as 41.7 µM (inconclusive). The CC50 [19] was > 40 µM (active).

For Cc1ccc(-n2c3nc(=O)[nH]c(=O)c-3cc3cc([N+](=O)[O-])ccc32)cc1C, the IC50 [20] was 6.47 µM (active), the CC50 [21] was 29.7 µM (active) and the IC50 [22] was 65.1 µM (active). For the same compound, the EC50 [23] was 10 µM (active).

For O=C(c1cnc2n(c1=O)CCS2)N(C1CCCCC1)C1CCCCC1, the IC50 [24] was 149 µM (active).

In the case of O=C(Nc1nc2ccccc2n1Cc1ccc(Cl)cc1)c1cccs1, the IC50 [8] is reported as > 20 µM (inactive), the IC50 [9] is reported as > 20 µM (inactive) and the IC50 [10] is reported as > 20 µM (inactive). For the same compound, the IC50 [11] was > 20 µM (inactive).

In the case of COc1ccccc1-c1nnc(SC/C(O)=C(\C#N)c2nc3ccccc3[nH]2)n1C1CCCCC1, the IC50 [24] is reported as 52.2 µM (active).
